target: T1, recombinant full-length human prolyl endopeptidase (PREP) (Homo sapiens, UniProt P48147); assay: Biochemical human prolyl endopeptidase (PREP) assay with fluorescently labelled substrate; settings: substrate Z-Gly-Pro-AMC 50 μM, 32° C., 60 min; some as mean values from multiple independent determinations
T1 construct: To recombinant full-length human prolyl endopeptidase (PREP, R&D-Systems, 4308-SE); purchased R&D-Systems 4308-SE
T1 sequence (P48147 1-710): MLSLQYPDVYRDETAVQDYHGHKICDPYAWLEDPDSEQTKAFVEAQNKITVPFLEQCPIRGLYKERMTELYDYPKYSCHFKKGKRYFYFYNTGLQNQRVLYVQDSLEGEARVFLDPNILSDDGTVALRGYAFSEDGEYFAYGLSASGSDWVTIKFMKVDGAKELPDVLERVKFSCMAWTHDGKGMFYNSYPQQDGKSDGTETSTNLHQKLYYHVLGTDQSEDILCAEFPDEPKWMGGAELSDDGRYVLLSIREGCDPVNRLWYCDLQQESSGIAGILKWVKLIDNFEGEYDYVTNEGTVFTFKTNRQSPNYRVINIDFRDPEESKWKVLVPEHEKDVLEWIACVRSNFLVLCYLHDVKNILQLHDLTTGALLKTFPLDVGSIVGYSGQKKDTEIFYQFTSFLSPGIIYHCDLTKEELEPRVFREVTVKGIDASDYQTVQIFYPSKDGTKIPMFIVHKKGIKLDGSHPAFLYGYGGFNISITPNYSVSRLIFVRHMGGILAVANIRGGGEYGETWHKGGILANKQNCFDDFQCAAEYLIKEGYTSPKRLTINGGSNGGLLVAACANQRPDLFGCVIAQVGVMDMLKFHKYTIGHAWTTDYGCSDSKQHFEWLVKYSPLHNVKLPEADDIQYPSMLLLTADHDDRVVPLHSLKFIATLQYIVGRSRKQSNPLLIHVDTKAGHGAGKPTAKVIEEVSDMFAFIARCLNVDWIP
Method in brief: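 0.4 nM (final, example) recombinant PREP in pH 7.5 Tris buffer with EDTA, GSH, BSA and Brij-35; compounds at 1 nM to 30 μM. Reaction started with 50 μM Z-Gly-Pro-AMC and followed by fluorescence (ex 360/em 465 nm) at 32° C for 60 min. IC50 interpolated from percent activity based on initial slopes.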

Compound | IC50
COc1ccc(Cn2nc3n(c2=O)[C@H](C(=O)N2CC(F)C2)CCC3)cn1 [Example 433, (5S)-5-[(3-Fluoroazetidin-1-yl)carbonyl]-2-[(6-methoxypyridin-3-yl)methyl]-5,6,7,8-tetrahydro[1,2,4]triazolo[4,3-a]pyridin-3(2H)-one] | 3.1 nM
COc1ccc(Cn2nc3n(c2=O)[C@H](C(=O)N2CCC(F)(F)C2)CCC3)cn1 [Example 434, (5S)-5-[(3,3-Difluoropyrrolidin-1-yl)carbonyl]-2-[(6-methoxypyridin-3-yl)methyl]-5,6,7,8-tetrahydro[1,2,4]triazolo[4,3-a]pyridin-3(2H)-one] | 2.4 nM
O=C([C@@H]1CCCc2nn(Cc3cncc(Cl)c3)c(=O)n21)N1CCC(F)(F)C1 [Example 435, (5S)-2-[(5-Chloropyridin-3-yl)methyl]-5-[(3,3-difluoropyrrolidin-1-yl)carbonyl]-5,6,7,8-tetrahydro[1,2,4]triazolo[4,3-a]pyridin-3(2H)-one] | 2.65 nM
O=C([C@@H]1CCCc2nn(Cc3cncc(Cl)c3)c(=O)n21)N1CC(F)C1 [Example 436, (5S)-2-[(5-Chloropyridin-3-yl)methyl]-5-[(3-fluoroazetidin-1-yl)carbonyl]-5,6,7,8-tetrahydro[1,2,4]triazolo[4,3-a]pyridin-3(2H)-one] | 4.7 nM
O=C([C@@H]1CCCc2nn(Cc3cncc(Cl)c3)c(=O)n21)N1CC(F)(F)C1 [Example 437, (5S)-2-[(5-Chloropyridin-3-yl)methyl]-5-[(3,3-difluoroazetidin-1-yl)carbonyl]-5,6,7,8-tetrahydro[1,2,4]triazolo[4,3-a]pyridin-3(2H)-one] | 7.1 nM
O=C([C@@H]1CCCc2nn(Cc3cncc(Cl)c3)c(=O)n21)N1CC[C@H](F)C1 [Example 438, (5S)-2-[(5-Chloropyridin-3-yl)methyl]-5-{[(3S)-3-fluoropyrrolidin-1-yl]carbonyl}-5,6,7,8-tetrahydro[1,2,4]triazolo[4,3-a]pyridin-3(2H)-one] | 1.68 nM
O=C([C@@H]1CCCc2nn(Cc3cncc(Cl)c3)c(=O)n21)N1C[C@@H](F)[C@@H](F)C1 [Example 439, (5S)-2-[(5-Chloropyridin-3-yl)methyl]-5-{[(3R,4S)-3,4-difluoropyrrolidin-1-yl]carbonyl}-5,6,7,8-tetrahydro[1,2,4]triazolo[4,3-a]pyridin-3(2H)-one] | 2.2 nM
O=C([C@@H]1CCCc2nn(Cc3cnc(C(F)(F)F)c(Cl)c3)c(=O)n21)N1CCC(F)(F)C1 [Example 441, (5S)-2-{[5-Chloro-6-(trifluoromethyl)pyridin-3-yl]methyl}-5-[(3,3-difluoropyrrolidin-1-yl)carbonyl]-5,6,7,8-tetrahydro[1,2,4]triazolo[4,3-a]pyridin-3(2H)-one] | 2 nM
O=C([C@@H]1CCCc2nn(Cc3cccc(C(F)(F)F)c3)c(=O)n21)N1CC(F)C1 [Example 447, (5S)-5-[(3-Fluoroazetidin-1-yl)carbonyl]-2-[3-(trifluoromethyl)benzyl]-5,6,7,8-tetrahydro[1,2,4]triazolo[4,3-a]pyridin-3(2H)-one] | 1.4 nM
O=C([C@@H]1CCCc2nn(Cc3ccc(F)c(C(F)(F)F)c3)c(=O)n21)N1CC(O)C1 [Example 449, (5S)-2-[4-Fluoro-3-(trifluoromethyl)benzyl]-5-[(3-hydroxyazetidin-1-yl)carbonyl]-5,6,7,8-tetrahydro[1,2,4]triazolo[4,3-a]pyridin-3(2H)-one] | 5.55 nM
O=C([C@@H]1CCCc2nn(Cc3ccc(F)cc3)c(=O)n21)N1C[C@@H](F)[C@@H](F)C1 [Example 452, (5S)-5-{[(3R,4S)-3,4-Difluoropyrrolidin-1-yl]carbonyl}-2-(4-fluorobenzyl)-5,6,7,8-tetrahydro[1,2,4]triazolo[4,3-a]pyridin-3(2H)-one] | 1.3 nM
O=C([C@@H]1CCCc2nn(Cc3ccc(F)c(Cl)c3)c(=O)n21)N1CC(F)C1 [Example 457, (5S)-2-(3-Chloro-4-fluorobenzyl)-5-[(3-fluoroazetidin-1-yl)carbonyl]-5,6,7,8-tetrahydro[1,2,4]triazolo[4,3-a]pyridin-3(2H)-one] | 1.32 nM

Stronger by IC50, values ahead:

IC50 | Compound
0.715 nM | O=C([C@@H]1CCCc2nn(Cc3cnc(C(F)(F)F)c(Cl)c3)c(=O)n21)N1C[C@@H](F)[C@@H](F)C1 [Example 440, (5S)-2-{[5-Chloro-6-(trifluoromethyl)pyridin-3-yl]methyl}-5-{[(3R,4S)-3,4-difluoropyrrolidin-1-yl]carbonyl}-5,6,7,8-tetrahydro[1,2,4]triazolo[4,3-a]pyridin-3(2H)-one]
1 nM | COc1ncc(Cn2nc3n(c2=O)[C@H](C(=O)N2C[C@@H](F)[C@@H](F)C2)CCC3)cc1Cl [Example 442, (5S)-2-[(5-Chloro-6-methoxypyridin-3-yl)methyl]-5-{[(3R,4S)-3,4-difluoropyrrolidin-1-yl]carbonyl}-5,6,7,8-tetrahydro[1,2,4]triazolo[4,3-a]pyridin-3(2H)-one]
0.61 nM | COc1ncc(Cn2nc3n(c2=O)[C@H](C(=O)N2CCC(F)(F)C2)CCC3)cc1Cl [Example 443, (5S)-2-[(5-Chloro-6-methoxypyridin-3-yl)methyl]-5-[(3,3-difluoropyrrolidin-1-yl)carbonyl]-5,6,7,8-tetrahydro[1,2,4]triazolo[4,3-a]pyridin-3(2H)-one]
0.19 nM | O=C([C@@H]1CCCc2nn(Cc3cccc(C(F)(F)F)c3)c(=O)n21)N1CC[C@H](F)C1 [Example 444, (5S)-5-{[(3S)-3-Fluoropyrrolidin-1-yl]carbonyl}-2-[3-(trifluoromethyl)benzyl]-5,6,7,8-tetrahydro[1,2,4]triazolo[4,3-a]pyridin-3(2H)-one]
0.76 nM | O=C([C@@H]1CCCc2nn(Cc3cccc(C(F)(F)F)c3)c(=O)n21)N1C[C@@H](F)[C@@H](F)C1 [Example 445, (5S)-5-{[(3R,4S)-3,4-Difluoropyrrolidin-1-yl]carbonyl}-2-[3-(trifluoromethyl)benzyl]-5,6,7,8-tetrahydro[1,2,4]triazolo[4,3-a]pyridin-3(2H)-one]
0.73 nM | O=C([C@@H]1CCCc2nn(Cc3cccc(C(F)(F)F)c3)c(=O)n21)N1CCC(F)(F)C1 [Example 446, (5S)-5-[(3,3-Difluoropyrrolidin-1-yl)carbonyl]-2-[3-(trifluoromethyl)benzyl]-5,6,7,8-tetrahydro[1,2,4]triazolo[4,3-a]pyridin-3(2H)-one]
0.615 nM | O=C([C@@H]1CCCc2nn(Cc3ccc(F)c(C(F)(F)F)c3)c(=O)n21)N1CC[C@H](F)C1 [Example 448, (5S)-5-{[(3S)-3-Fluoropyrrolidin-1-yl]carbonyl}-2-[4-fluoro-3-(trifluoromethyl)benzyl]-5,6,7,8-tetrahydro[1,2,4]triazolo[4,3-a]pyridin-3(2H)-one]
1.1 nM | O=C([C@@H]1CCCc2nn(Cc3ccnc(C(F)(F)F)c3)c(=O)n21)N1CC[C@H](F)C1 [Example 450, (5S)-5-{[(3S)-3-Fluoropyrrolidin-1-yl]carbonyl}-2-{[2-(trifluoromethyl)pyridin-4-yl]methyl}-5,6,7,8-tetrahydro[1,2,4]triazolo[4,3-a]pyridin-3(2H)-one]
1.1 nM | O=C([C@@H]1CCCc2nn(Cc3ccc(F)cc3)c(=O)n21)N1CCC(F)(F)C1 [Example 451, (5S)-5-[(3,3-Difluoropyrrolidin-1-yl)carbonyl]-2-(4-fluorobenzyl)-5,6,7,8-tetrahydro[1,2,4]triazolo[4,3-a]pyridin-3(2H)-one]
0.375 nM | COc1ccc(Cn2nc3n(c2=O)[C@H](C(=O)N2C[C@@H](F)[C@@H](F)C2)CCC3)cc1 [Example 453, (5S)-5-{[(3R,4S)-3,4-Difluoropyrrolidin-1-yl]carbonyl}-2-(4-methoxybenzyl)-5,6,7,8-tetrahydro[1,2,4]triazolo[4,3-a]pyridin-3(2H)-one]
0.063 nM | O=C([C@@H]1CCCc2nn(Cc3ccc(F)c(Cl)c3)c(=O)n21)N1CC[C@H](F)C1 [Example 454, (5S)-2-(3-Chloro-4-fluorobenzyl)-5-{[(3S)-3-fluoropyrrolidin-1-yl]carbonyl}-5,6,7,8-tetrahydro[1,2,4]triazolo[4,3-a]pyridin-3(2H)-one]
0.77 nM | O=C([C@@H]1CCCc2nn(Cc3ccc(F)c(Cl)c3)c(=O)n21)N1CCC(F)(F)C1 [Example 455, (5S)-2-(3-Chloro-4-fluorobenzyl)-5-[(3,3-difluoropyrrolidin-1-yl)carbonyl]-5,6,7,8-tetrahydro[1,2,4]triazolo[4,3-a]pyridin-3(2H)-one]
0.27 nM | O=C([C@@H]1CCCc2nn(Cc3ccc(F)c(Cl)c3)c(=O)n21)N1C[C@@H](F)[C@@H](F)C1 [Example 456, (5S)-2-(3-Chloro-4-fluorobenzyl)-5-{[(3R,4S)-3,4-difluoropyrrolidin-1-yl]carbonyl}-5,6,7,8-tetrahydro[1,2,4]triazolo[4,3-a]pyridin-3(2H)-one]

Source: US10722501B2 (BAYER AKTIENGESELLSCHAFT, priority 2016, dated 2020)
